From patent publication US12491182B2, “Polymorphs of triazole antifungal compound PC945” (Pulmocide Limited, priority 2019, dated 2025)
Where “and” joins values, the source holds several entries; their conditions need not be identical. Identical values can stand only once.

Legend:
[1] = Thermo-gravimetric analysis (degradation onset); assay type: physicochemical; details: sample prepared from toluene
Method: TGA data were collected on a TA Instrument Q500 TGA, equipped with a 16 position auto-sampler. The instrument was temperature calibrated using certified Alumel and Nickel. Typically 5-10 mg of sample was loaded onto a pre-tared aluminium DSC pan and heated at 10° C./min from ambient temperature to 350° C. A nitrogen purge at 60 mL/min was maintained over the sample. The instrument control software was Advantage for Q Series v2.5.0.256 and Thermal Advantage v5.5.3 and the data were analysed using Universal Analysis v4.5A.
TGA profiling was carried out according to methods described above and was used to determine the amount of residual solvents associated with the polymorphs of Compound I. In addition, it was used to measure the quantity of solvent released on heating from the solvated forms of Compound I. Typical residual solvent levels found in samples of the polymorphs of Compound I are as follows.

[2] = Comparative pharmacokinetic profiling of Forms 1 and 2 by inhalation administration to rats; assay type: in vivo, male RccHan:WIST rat; details: for Drug Concentration in Animal by No. (plasma): individual animals
Excerpt: A study was undertaken to compare the time-course of unchanged drug concentrations in plasma following a single inhalation dose of either Form 1 or Form 2 in rats.
The male RccHan™:WIST rat was considered a suitable species and strain because of its acceptance by regulatory agencies. The inhalation route of administration was chosen to simulate the conditions of clinical administration. A total of 14 of animals (six animals per group with two spare animals), 10 to 12 weeks of age and weighing 306 to 341 g at the start of drug treatment, were used in the study. Treatment consisted of a single 2 hour inhalation exposure with a nebulised formulation of either micronised Form 1 (98.94% purity) to Group 1 animals or micronised Form 2 (98.10% purity) to Group 2 animals. The pharmacokinetic parameters of the two polymorphic forms were determined to support pharmacology and toxicology studies in animals and clinical studies in man.
Suspensions were manufactured by first preparing a concentrated solution of the surfactants (wetting solution) and a saline solution. These were then used to make the vehicle. A saline solution was prepared as follows. Sodium chloride (50 g) was weighed into a 5000 mL volumetric flask, made up to volume with water, stirred with a magnetic stirrer for 10 min and then passed through a 0.22 μm membrane filter. Wetting solution was prepared as follows. Lipoid S100 (10 g) was weighed into a 2000 mL Duran bottle, 1000 g of propylene glycol was added and the mixture was stirred on a Silverson mixer equipped with a 1″ high shear screen for 1 min at 8000 rpm and then passed through a 0.22 μm membrane filter. Vehicle was prepared as follows. The wetting solution (500 mL) was transferred into a 5000 mL volumetric flask, made to volume with saline solution, stirred with a magnetic stirrer for 10 min and then passed through a 0.22 μm membrane filter.
A 1000 mL batch of 4 mg/mL suspension of Compound I was prepared as follows. Compound I (4.00 g) was weighed into a small beaker, 100 mL of wetting solution was added and the mixture was stirred with a Silverson mixer equipped with a 1″ high shear screen for 5 min at 8000 rpm. The mixture was then transferred into a 5000 mL Duran bottle using saline solution and stirred using a Silverson mixer equipped with a 1″ high shear screen for 5 min at 8000 rpm, after which it was stored between 2 and 8° C. Higher or lower strength suspensions (range 0.2 to 20 mg/mL) were prepared by adjusting the input weight of API as appropriate for higher mg/mL suspensions or by further diluting with vehicle for lower mg/mL suspensions. All formulations were magnetically stirred for at least 30 min, and assessed visually prior to administration.
Rats were acclimatised to the inhalation dosing procedure for three consecutive days prior to dosing. Animals were treated with the test substance by aerosol inhalation administration for 120 min via snout only exposure, at a target aerosol concentration of 25.2 μg/L. The estimations of inhaled dose from an exposure duration of 2 hr and an assumed body weight of 300 g were calculated using the formula:
[formula] where: C is the aerosol concentration (μg/L); RMV is the respiratory minute volume (L/min); D is the duration of exposure (120 mins) and BW is the group mean body weight (kg). The mean achieved aerosol concentrations, estimated inhaled dose and particle size distribution (PSD) summary data are presented below. (Table 14).
Venous blood samples (0.3 mL) were taken from the tail vein of animals and samples collected after dosing (2 hr from the start of dose administration) and thereafter at times 3, 4, 6, 8, 12, 24, 28, 32, 36 and 48 hr following treatment. Samples were treated with K2EDTA anticoagulant, spun at 2000 g for 10 min at 4° C. and then stored frozen (−20° C.±10) whilst awaiting analysis. Plasma samples were subsequently analysed for Compound I by LGC using a validated LC-MS/MS method. […]

## Cc1cc(N2CCN(c3ccc(C(=O)Nc4ccc(F)cc4)cc3)CC2)ccc1OC[C@@H]1CO[C@@](Cn2cncn2)(c2ccc(F)cc2F)C1 [Form 1, 4-(4-(4-(((3R,5R)-5-((1H-1,2,4-triazol-1-yl)methyl)-5-(2,4-difluorophenyl)tetrahydrofuran-3-yl)methoxy)-3-methylphenyl)piperazin-1-yl)-N-(4-fluorophenyl)benzamide]
[1]
  temperature from which degradation was evident (TGA): 320 °C
[2]; RccHan:WIST, rat, plasma, inhaled or intranasal, male rats, single 2 hr inhalation, nominal dose 2.2 mg/kg, from start of exposure, read-out: Tmax
  Tmax: 6 h
[2]; male rats, inhalation, nominal 2.2 mg/kg, 3 hr from start of exposure
  Drug Concentration in Animal by No. (plasma): 5.31 ng/mL and 4.35 ng/mL and 2.41 ng/mL
[2]; male rats, inhalation, nominal 2.2 mg/kg, 4 hr from start of exposure
  Drug Concentration in Animal by No. (plasma): 4.73 ng/mL and 6.32 ng/mL and 3.78 ng/mL
[2]; male rats, inhalation, nominal 2.2 mg/kg, 6 hr from start of exposure
  Drug Concentration in Animal by No. (plasma): 5.38 ng/mL and 3.97 ng/mL and 5.49 ng/mL
[2]; male rats, inhalation, nominal 2.2 mg/kg, 8 hr from start of exposure
  Drug Concentration in Animal by No. (plasma): 3.28 ng/mL and 2.88 ng/mL
[2]; male rats, inhalation, nominal 2.2 mg/kg, 8 hr, group mean
  Drug Concentration Mean (plasma): 3.08 ng/mL
[2]; male rats, inhalation, nominal 2.2 mg/kg, 12 hr from start of exposure
  Drug Concentration in Animal by No. (plasma): 4.05 ng/mL and 3.64 ng/mL
[2]; male rats, inhalation, nominal 2.2 mg/kg, 24 hr from start of exposure
  Drug Concentration in Animal by No. (plasma): 2.47 ng/mL and 3.00 ng/mL and 3.85 ng/mL and 2.75 ng/mL and 2.02 ng/mL and 3.03 ng/mL
[2]; male rats, inhalation, nominal 2.2 mg/kg, 28 hr from start of exposure
  Drug Concentration in Animal by No. (plasma): 1.85 ng/mL and 2.22 ng/mL and 3.92 ng/mL and 1.87 ng/mL and 2.04 ng/mL
[2]; male rats, inhalation, nominal 2.2 mg/kg, 32 hr from start of exposure
  Drug Concentration in Animal by No. (plasma): 1.36 ng/mL and 1.85 ng/mL and 2.79 ng/mL and 1.66 ng/mL and 2.20 ng/mL and 1.32 ng/mL
[2]; male rats, inhalation, nominal 2.2 mg/kg, 32 hr, group mean
  Drug Concentration Mean (plasma): 1.86 ng/mL
[2]; male rats, inhalation, nominal 2.2 mg/kg, 36 hr from start of exposure
  Drug Concentration in Animal by No. (plasma): 1.21 ng/mL and 1.36 ng/mL and 1.74 ng/mL and 1.70 ng/mL and 1.01 ng/mL and 1.80 ng/mL
[2]; male rats, inhalation, nominal 2.2 mg/kg, 36 hr, group mean
  Drug Concentration Mean (plasma): 1.47 ng/mL
[2]; male rats, inhalation, nominal 2.2 mg/kg, 48 hr from start of exposure
  Drug Concentration in Animal by No. (plasma): 1.10 ng/mL and 1.45 ng/mL and 1.28 ng/mL and 1.26 ng/mL and 1.19 ng/mL
[2]; male rats, inhalation, nominal 2.2 mg/kg, IAD (immediately after dosing), group mean
  Drug Concentration Mean (plasma): 1.11 ng/mL
[2]; male rats, inhalation, nominal 2.2 mg/kg, IAD (immediately after dosing)
  Drug Concentration in Animal by No. (plasma): 1.16 ng/mL and 0.826 ng/mL and 1.35 ng/mL
[2]; male rats, inhalation, AUCt of Form 2 normalised to dose achieved for Form 1 (2.48 mg/kg), 2.48 mg/kg
  AUCt dose normalised: 122 ng·h/mL
[2]; male rats, inhalation, after the start of exposure (last sampling time)
  time up to which plasma concentrations remained quantifiable: 48 h
[2]; male, RccHan:WIST, rat, plasma, inhaled or intranasal, 2.2 mg/kg, single 2 hr inhalation of nebulised aqueous suspension, nominal dose 2.2 mg/kg, read-out: Cmax (maximum mean plasma concentration)
  Cmax: 4.95 ng/mL
[2]; male, RccHan:WIST, rat, plasma, inhaled or intranasal, 2.2 mg/kg, single 2 hr inhalation, nominal dose 2.2 mg/kg, 0-48 hr
  AUC(0-t): 122 ng·h/mL
[2]; male, RccHan:WIST, rat, plasma, inhaled, 2.2 mg/kg, inhalation, nominal 2.2 mg/kg, 3 hr, group mean, read-out: Drug Concentration Mean (plasma)
  concentration at 3 h: 4.02 ng/mL
[2]; male, RccHan:WIST, rat, plasma, inhaled, 2.2 mg/kg, inhalation, nominal 2.2 mg/kg, 4 hr, group mean, read-out: Drug Concentration Mean (plasma)
  concentration at 4 h: 4.94 ng/mL
[2]; male, RccHan:WIST, rat, plasma, inhaled, 2.2 mg/kg, inhalation, nominal 2.2 mg/kg, 6 hr, group mean, read-out: Drug Concentration Mean (plasma)
  concentration at 6 h: 4.95 ng/mL
[2]; male, RccHan:WIST, rat, plasma, inhaled, 2.2 mg/kg, inhalation, nominal 2.2 mg/kg, 12 hr, group mean, read-out: Drug Concentration Mean (plasma)
  concentration at 12 h: 3.85 ng/mL
[2]; male, RccHan:WIST, rat, plasma, inhaled, 2.2 mg/kg, inhalation, nominal 2.2 mg/kg, 24 hr, group mean, read-out: Drug Concentration Mean (plasma)
  concentration at 24 h: 2.85 ng/mL
[2]; male, RccHan:WIST, rat, plasma, inhaled, 2.2 mg/kg, inhalation, nominal 2.2 mg/kg, 28 hr, group mean, read-out: Drug Concentration Mean (plasma)
  concentration at 28 h: 2.38 ng/mL
[2]; male, RccHan:WIST, rat, plasma, inhaled, 2.2 mg/kg, inhalation, nominal 2.2 mg/kg, 48 hr, group mean, read-out: Drug Concentration Mean (plasma)
  concentration at 48 h: 1.26 ng/mL
